{"source": "patent US20260265246A1", "about": "(ICAHN SCHOOL OF MEDICINE AT MOUNT SINAI, priority 2021, published 2026)", "data": [{"target": "T1, 5HT2A receptor (Homo sapiens, UniProt P28223)", "T1 sequence (P28223 whole entry)": "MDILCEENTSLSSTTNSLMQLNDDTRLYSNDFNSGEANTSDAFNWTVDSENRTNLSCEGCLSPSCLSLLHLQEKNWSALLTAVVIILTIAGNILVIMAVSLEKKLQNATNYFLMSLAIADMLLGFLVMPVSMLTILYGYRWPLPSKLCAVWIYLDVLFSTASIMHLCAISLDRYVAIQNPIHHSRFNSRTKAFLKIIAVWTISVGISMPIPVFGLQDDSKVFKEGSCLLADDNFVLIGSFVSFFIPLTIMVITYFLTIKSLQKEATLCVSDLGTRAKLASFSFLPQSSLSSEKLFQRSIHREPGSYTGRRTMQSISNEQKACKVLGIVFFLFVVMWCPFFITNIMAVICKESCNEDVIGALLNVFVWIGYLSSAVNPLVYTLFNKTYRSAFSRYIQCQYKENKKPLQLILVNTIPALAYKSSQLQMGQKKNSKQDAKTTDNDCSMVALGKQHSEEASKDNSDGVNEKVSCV", "assay": "biochemical", "format": "binding", "design": "expressed in transfected cells; crude membranes", "conditions": "5HT2A Ki (nM), secondary binding assay, Cheng-Prusoff", "units": {"Ki": "nM"}, "values": [{"smiles": "CCCN1CCC=C(c2c[nH]c3cnccc23)C1", "note": "[Example 143, 3-(1-propyl-1,2,5,6-tetrahydropyridin-3-yl)-1H-pyrrolo[2,3-c]pyridine]", "Ki": 9760}, {"smiles": "NC1CCC=C(c2n[nH]c3c(Cl)cccc23)C1", "note": "(stereo not shown) [Example 169, 3-(7-chloro-1H-indazol-3-yl)cyclohex-3-en-1-amine]", "Ki": "> 10000"}, {"smiles": "CN(C)C1CCC=C(c2n[nH]c3c(Cl)cccc23)C1", "note": "(stereo not shown) [Example 170, 3-(7-chloro-1H-indazol-3-yl)-N,N-dimethylcyclohex-3-en-1-amine]", "Ki": "> 10000"}, {"smiles": "CCCNC1CCC=C(c2n[nH]c3c(Cl)cccc23)C1", "note": "(stereo not shown) [Example 171, 3-(7-chloro-1H-indazol-3-yl)-N-propylcyclohex-3-en-1-amine]", "Ki": "> 10000"}, {"smiles": "Clc1cccc2c(C3=CCCN(C4CCC4)C3)n[nH]c12", "note": "[Example 174, 7-chloro-3-(1-cyclobutyl-1,2,5,6-tetrahydropyridin-3-yl)-1H-indazole]", "Ki": 9760}, {"smiles": "CCCN1CCC=C(c2n[nH]c3c(C#N)cccc23)C1", "note": "[Example 176, 3-(1-propyl-1,2,5,6-tetrahydropyridin-3-yl)-1H-indazole-7-carbonitrile]", "Ki": "> 10000"}, {"smiles": "CCCN1CCC=C(c2n[nH]c3c(Cl)ccc(F)c23)C1", "note": "[Example 177, 7-chloro-4-fluoro-3-(1-propyl-1,2,5,6-tetrahydropyridin-3-yl)-1H-indazole]", "Ki": 1830}, {"smiles": "Clc1cccc2c(C3=CCCN(C4COC4)C3)n[nH]c12", "note": "[Example 178, 7-chloro-3-(1-(oxetan-3-yl)-1,2,5,6-tetrahydropyridin-3-yl)-1H-indazole]", "Ki": "> 10000"}, {"smiles": "FC1(F)CC(N2CCC=C(c3n[nH]c4c(Cl)cccc34)C2)C1", "note": "[Example 179, 7-chloro-3-(1-(3,3-difluorocyclobutyl)-1,2,5,6-tetrahydropyridin-3-yl)-1H-indazole]", "Ki": 8620}, {"smiles": "Cc1cccc2c(C34CNCCC3C4(F)F)n[nH]c12", "note": "(stereo not shown) [Example 189, 3-(7,7-difluoro-3-azabicyclo[4.1.0]heptan-1-yl)-7-methyl-1H-indazole]", "Ki": 6920}, {"smiles": "Fc1cccc2c(C34CNCCC3C4(F)F)n[nH]c12", "note": "(stereo not shown) [Example 190, 3-(7,7-difluoro-3-azabicyclo[4.1.0]heptan-1-yl)-7-fluoro-1H-indazole]", "Ki": 5370}, {"smiles": "N#Cc1cccc2c(C34CNCCC3C4(F)F)n[nH]c12", "note": "(stereo not shown) [Example 192, 3-(7,7-difluoro-3-azabicyclo[4.1.0]heptan-1-yl)-1H-indazole-7-carbonitrile]", "Ki": "> 10000"}]}, {"target": "T1, 5HT2A receptor", "assay": "biochemical", "format": "binding", "design": "expressed in transfected cells; crude membranes", "conditions": "5HT2A Ki (nM), secondary radioligand binding, Ki from IC50 by Cheng-Prusoff", "units": {"Ki": "nM"}, "values": [{"smiles": "Cc1cnc2[nH]cc(C3=CCCNC3)c2c1", "note": "[Example 1, 5-methyl-3-(1,2,5,6-tetrahydropyridin-3-yl)-1H-pyrrolo[2,3-b]pyridine]", "Ki": 1720}, {"smiles": "Cc1cnc2[nH]cc(C3=CCCN(C)C3)c2c1", "note": "[Example 5, 5-methyl-3-(1-methyl-1,2,5,6-tetrahydropyridin-3-yl)-1H-pyrrolo[2,3-b]pyridine]", "Ki": 717}, {"smiles": "C1=C(c2c[nH]c3nccc(-c4ccccc4)c23)CNCC1", "note": "[Example 12, 4-phenyl-3-(1,2,5,6-tetrahydropyridin-3-yl)-1H-pyrrolo[2,3-b]pyridine]", "Ki": 191}, {"smiles": "CC(C)c1ccc2[nH]cc(C3=CCCN(C)C3)c2c1", "note": "[Example 24, 5-isopropyl-3-(1-methyl-1,2,5,6-tetrahydropyridin-3-yl)-1H-indole]", "Ki": 105}, {"smiles": "C1=C(c2c[nH]c3ccc(-c4ccccc4)cc23)CNCC1", "note": "[Example 27, 5-phenyl-3-(1,2,5,6-tetrahydropyridin-3-yl)-1H-indole]", "Ki": 1480}, {"smiles": "CN1CCC=C(c2c[nH]c3ccc(-c4ccccc4)cc23)C1", "note": "[Example 28, 3-(1-methyl-1,2,5,6-tetrahydropyridin-3-yl)-5-phenyl-1H-indole]", "Ki": 498}, {"smiles": "Cc1ccc2c(C3=CCCNC3)c[nH]c2c1", "note": "[Example 29, 6-methyl-3-(1,2,5,6-tetrahydropyridin-3-yl)-1H-indole]", "Ki": 1200}, {"smiles": "Cc1ccc2c(C3=CCCN(C)C3)c[nH]c2c1", "note": "[Example 30, 6-methyl-3-(1-methyl-1,2,5,6-tetrahydropyridin-3-yl)-1H-indole]", "Ki": 647}, {"smiles": "CC(C)c1ccc2c(C3=CCCNC3)c[nH]c2c1", "note": "[Example 33, 6-isopropyl-3-(1,2,5,6-tetrahydropyridin-3-yl)-1H-indole]", "Ki": 1260}, {"smiles": "CC(C)c1ccc2c(C3=CCCN(C)C3)c[nH]c2c1", "note": "[Example 34, 6-isopropyl-3-(1-methyl-1,2,5,6-tetrahydropyridin-3-yl)-1H-indole]", "Ki": 486}, {"smiles": "COc1ccc2c(C3=CCCNC3)c[nH]c2c1", "note": "[Example 35, 6-methoxy-3-(1,2,5,6-tetrahydropyridin-3-yl)-1H-indole]", "Ki": "> 10000"}, {"smiles": "COc1ccc2c(C3=CCCN(C)C3)c[nH]c2c1", "note": "[Example 36, 6-methoxy-3-(1-methyl-1,2,5,6-tetrahydropyridin-3-yl)-1H-indole]", "Ki": 8500}, {"smiles": "CC(C)(C)c1ccc2c(C3=CCCNC3)c[nH]c2c1", "note": "[Example 37, 6-(tert-butyl)-3-(1,2,5,6-tetrahydropyridin-3-yl)-1H-indole]", "Ki": 9910}, {"smiles": "CN1CCC=C(c2c[nH]c3cc(C(C)(C)C)ccc23)C1", "note": "[Example 38, 6-(tert-butyl)-3-(1-methyl-1,2,5,6-tetrahydropyridin-3-yl)-1H-indole]", "Ki": 7880}, {"smiles": "C1=C(c2c[nH]c3cc(-c4ccccc4)ccc23)CNCC1", "note": "[Example 39, 6-phenyl-3-(1,2,5,6-tetrahydropyridin-3-yl)-1H-indole]", "Ki": 6760}, {"smiles": "CN1CCC=C(c2c[nH]c3cc(-c4ccccc4)ccc23)C1", "note": "[Example 40, 3-(1-methyl-1,2,5,6-tetrahydropyridin-3-yl)-6-phenyl-1H-indole]", "Ki": 1330}, {"smiles": "CN1CCC=C(c2cn(C)c3ncccc23)C1", "note": "[Example 48, 1-methyl-3-(1-methyl-1,2,5,6-tetrahydropyridin-3-yl)-1H-pyrrolo[2,3-b]pyridine]", "Ki": 423}, {"smiles": "CCN(CC)C(=O)NC1C=C(c2c[nH]c3ncccc23)CNC1", "note": "(stereo not shown) [Example 49, 3-(5-(1H-pyrrolo[2,3-b]pyridin-3-yl)-1,2,3,6-tetrahydropyridin-3-yl)-1,1-diethylurea]", "Ki": 5580}, {"smiles": "COc1cccc2c(C3=CCCNC3)c[nH]c12", "note": "[Example 51, 7-methoxy-3-(1,2,5,6-tetrahydropyridin-3-yl)-1H-indole]", "Ki": "> 10000"}, {"smiles": "CC(C)c1cccc2c(C3=CCCN(C)C3)c[nH]c12", "note": "[Example 54, 7-isopropyl-3-(1-methyl-1,2,5,6-tetrahydropyridin-3-yl)-1H-indole]", "Ki": 510}, {"smiles": "CN1CCC=C(c2c[nH]c3c(C(C)(C)C)cccc23)C1", "note": "[Example 55, 7-(tert-butyl)-3-(1-methyl-1,2,5,6-tetrahydropyridin-3-yl)-1H-indole]", "Ki": 374}, {"smiles": "CN1CCC=C(c2c[nH]c3c(C(=O)O)cccc23)C1", "note": "[Example 57, 3-(1-methyl-1,2,5,6-tetrahydropyridin-3-yl)-1H-indole-7-carboxylic acid]", "Ki": "> 10000"}, {"smiles": "CN1CCC=C(c2c[nH]c3c(CO)cccc23)C1", "note": "[Example 58, (3-(1-methyl-1,2,5,6-tetrahydropyridin-3-yl)-1H-indol-7-yl)methanol]", "Ki": "> 10000"}, {"smiles": "CC(C)c1cccc2c(C3=CCCN(Cc4ccccc4)C3)c[nH]c12", "note": "[Example 70, 3-(1-benzyl-1,2,5,6-tetrahydropyridin-3-yl)-7-(propan-2-yl)-1H-indole]", "Ki": 2050}, {"smiles": "CC(C)(C)c1cccc2c(C3=CCCN(Cc4ccccc4)C3)c[nH]c12", "note": "[Example 72, 3-(1-benzyl-1,2,5,6-tetrahydropyridin-3-yl)-7-tert-butyl-1H-indole]", "Ki": 734}, {"smiles": "O=C(O)c1cccc2c(C3=CCCN(Cc4ccccc4)C3)c[nH]c12", "note": "[Example 74, 3-(1-benzyl-1,2,5,6-tetrahydropyridin-3-yl)-1H-indole-7-carboxylic acid]", "Ki": "> 10000"}, {"smiles": "OCc1cccc2c(C3=CCCN(Cc4ccccc4)C3)c[nH]c12", "note": "[Example 75, (3-(1-benzyl-1,2,5,6-tetrahydropyridin-3-yl)-1H-indol-7-yl)methanol]", "Ki": "> 10000"}, {"smiles": "COc1cccc2c(C3=CCCNC3)n[nH]c12", "note": "[Example 92, 7-methoxy-3-(1,2,5,6-tetrahydropyridin-3-yl)-1H-indazole]", "Ki": 1090}, {"smiles": "Cc1ccc2c(C3=CCCN(C)C3)n[nH]c2c1", "note": "[Example 93, 6-methyl-3-(1-methyl-1,2,5,6-tetrahydropyridin-3-yl)-1H-indazole]", "Ki": 2920}, {"smiles": "CN1CCC=C(c2n[nH]c3cc(C#N)ccc23)C1", "note": "[Example 96, 3-(1-methyl-1,2,5,6-tetrahydropyridin-3-yl)-1H-indazole-6-carbonitrile]", "Ki": 5470}, {"smiles": "COc1cccc2c(C3=CCCN(C)C3)n[nH]c12", "note": "[Example 109, 7-methoxy-3-(1-methyl-1,2,5,6-tetrahydropyridin-3-yl)-1H-indazole]", "Ki": "> 10000"}, {"smiles": "Clc1cccn2c(C3=CCCNC3)cnc12", "note": "[Example 110, 8-chloro-3-(1,2,5,6-tetrahydropyridin-3-yl)imidazo[1,2-a]pyridine]", "Ki": "> 10000"}, {"smiles": "Fc1cccn2c(C3=CCCNC3)cnc12", "note": "[Example 111, 8-fluoro-3-(1,2,5,6-tetrahydropyridin-3-yl)imidazo[1,2-a]pyridine]", "Ki": "> 10000"}, {"smiles": "Cc1cccn2c(C3=CCCNC3)cnc12", "note": "[Example 112, 8-methyl-3-(1,2,5,6-tetrahydropyridin-3-yl)imidazo[1,2-a]pyridine]", "Ki": 9040}]}, {"target": "T1, 5HT2A receptor", "assay": "biochemical", "format": "binding", "design": "expressed in transfected cells; crude membranes", "conditions": "secondary binding assay, Cheng-Prusoff; read-out: 5HT2A Ki", "units": {"Ki": "nM"}, "values": [{"smiles": "C1=C(c2c[nH]c3cnccc23)CNCC1", "note": "[Example 142, 3-(1,2,5,6-tetrahydropyridin-3-yl)-1H-pyrrolo[2,3-c]pyridine]", "Ki": 152}]}, {"target": "T1, 5HT2A receptor", "assay": "cell-based", "design": "expressed in transfected cells; host or cells: HEK293T cells, transient co-transfection", "conditions": "HEK-293T, BRET2 Gαq dissociation, HEK293T cells, normalized to 5-HT; read-out: 5HT2A Gq Emax (%)", "units": {"Emax": "%"}, "values": [{"smiles": "COc1ccc2[nH]nc(C3=CCCNC3)c2c1", "note": "[Example 87, 5-methoxy-3-(1,2,5,6-tetrahydropyridin-3-yl)-1H-indazole]", "Emax": 84.2}]}, {"target": "T1, 5HT2A receptor", "assay": "cell-based", "design": "expressed in transfected cells; host or cells: HEK293T cells, transient co-transfection", "conditions": "HEK-293T, BRET1 beta-arrestin2 recruitment, HEK293T cells, normalized to 5-HT; read-out: 5HT2A β-Arr Emax (%)", "units": {"Emax": "%"}, "values": [{"smiles": "COc1ccc2[nH]nc(C3=CCCNC3)c2c1", "note": "[Example 87, 5-methoxy-3-(1,2,5,6-tetrahydropyridin-3-yl)-1H-indazole]", "Emax": 80}]}]}
